Experimental data published in ChEMBL document CHEMBL1131036, “Structure-based design, synthesis, and biological evaluation of irreversible human rhinovirus 3C protease inhibitors. 1. Michael acceptor structure-activity studies” (J Med Chem, 1998).

Experiments:
HeLa [1] = test: Formazan production in HRV-14 virus infected cells; format: functional, cell-based; conditions: Homo sapiens
[2] = target: T1, Human rhinovirus A protease (Human rhinovirus sp.) (UniProt Q4U254); test: Catalytic rate constant (Kobs/[I]) evaluated against human rhinovirus (HRV) serotype 14 3C Protease (3CP); conditions: Human rhinovirus B (HRV-14)
T1 sequence (whole entry): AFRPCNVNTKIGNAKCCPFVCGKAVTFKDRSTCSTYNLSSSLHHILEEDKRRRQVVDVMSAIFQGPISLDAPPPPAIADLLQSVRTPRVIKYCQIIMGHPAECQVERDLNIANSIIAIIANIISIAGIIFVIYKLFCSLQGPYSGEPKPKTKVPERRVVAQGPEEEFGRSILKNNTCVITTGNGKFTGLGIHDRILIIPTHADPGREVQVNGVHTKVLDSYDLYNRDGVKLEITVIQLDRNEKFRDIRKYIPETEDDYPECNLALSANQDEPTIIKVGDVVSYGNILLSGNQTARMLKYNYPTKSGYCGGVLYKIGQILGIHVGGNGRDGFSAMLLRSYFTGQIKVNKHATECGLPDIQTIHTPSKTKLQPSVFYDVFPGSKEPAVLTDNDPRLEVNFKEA

HeLa [3] = test: Concentration of compound that decreased the percentage of formazan production in treated HRV-14 virus infected cells to that produced in uninfected cells; format: functional; conditions: Homo sapiens

SMILES	EC50 (HeLa [1]) [µM]	K obs / 1 [2] [M⁻¹ s⁻¹]	CC50 (HeLa [3]) [µM]
CC(C)C[C@H](NC(=O)OCc1ccccc1)C(=O)N[C@@H](Cc1ccccc1)C(=O)N[C@H](/C=C/C(=O)c1ccccc1)CCC(N)=O	4	500000	16
CC(C)C[C@H](NC(=O)OCc1ccccc1)C(=O)N[C@@H](Cc1ccccc1)C(=O)N[C@H](/C=C/C(=O)N1CCc2cccc(S(C)(=O)=O)c21)CCC(N)=O	> 320	< 1000	> 320
CC(C)C[C@H](NC(=O)OCc1ccccc1)C(=O)N[C@@H](Cc1ccccc1)C(=O)N[C@H](/C=C/C(=O)N1CCc2cccc(Cl)c21)CCC(N)=O	56	5400	> 320
COC(=O)N1CC/C(=C\[C@H](CCC(N)=O)NC(=O)[C@H](Cc2ccccc2)NC(=O)[C@H](CC(C)C)NC(=O)OCc2ccccc2)C1=O	28	8400	> 100
CCNC(=O)/C=C/[C@H](CCC(N)=O)NC(=O)[C@H](Cc1ccccc1)NC(=O)[C@H](CC(C)C)NC(=O)OCc1ccccc1	> 320	350	> 320
COC(=O)/C=C/[C@H](CCC(N)=O)NC(=O)[C@H](Cc1ccccc1)NC(=O)[C@H](CC(C)C)NC(=O)OCc1ccccc1	1.3	20000	> 320
CC(C)C[C@H](NC(=O)OCc1ccccc1)C(=O)N[C@@H](Cc1ccccc1)C(=O)N[C@H](/C=C/C(=O)NC1CCCC1)CCC(N)=O	> 100	250	> 320
CC(C)C[C@H](NC(=O)OCc1ccccc1)C(=O)N[C@@H](Cc1ccccc1)C(=O)N[C@H](/C=C/S(=O)(=O)c1ccccc1)CCC(N)=O	200	270	> 320
COC(=O)/C=C\[C@H](CCC(N)=O)NC(=O)[C@H](Cc1ccccc1)NC(=O)[C@H](CC(C)C)NC(=O)OCc1ccccc1	3.2	2400	> 320
CC(C)C[C@H](NC(=O)OCc1ccccc1)C(=O)N[C@@H](Cc1ccccc1)C(=O)N[C@H](/C=C/C(=O)n1ccc2ccccc21)CCC(N)=O	1.8	53000	29
CC(C)C[C@H](NC(=O)OCc1ccccc1)C(=O)N[C@@H](Cc1ccccc1)C(=O)N[C@H](/C=C/C#N)CCC(N)=O	18	0	> 320
CC(C)C[C@H](NC(=O)OCc1ccccc1)C(=O)N[C@@H](Cc1ccccc1)C(=O)N[C@H](/C=C/C(=O)N1CCc2ccc(S(C)(=O)=O)cc21)CCC(N)=O	> 320	12900	> 320
CC(C)C[C@H](NC(=O)OCc1ccccc1)C(=O)N[C@@H](Cc1ccccc1)C(=O)N[C@H](/C=C/C(=O)N1CCc2cc(Cl)ccc21)CCC(N)=O	5.6	450	56
CC(C)C[C@H](NC(=O)OCc1ccccc1)C(=O)N[C@@H](Cc1ccccc1)C(=O)N[C@H](/C=C/S(C)(=O)=O)CCC(N)=O	> 320	160	> 320
CCN(CC)c1ccc(C(=O)/C=C/[C@H](CCC(N)=O)NC(=O)[C@H](Cc2ccccc2)NC(=O)[C@H](CC(C)C)NC(=O)OCc2ccccc2)cc1	> 25	4500	25
CC(C)C[C@H](NC(=O)OCc1ccccc1)C(=O)N[C@@H](Cc1ccccc1)C(=O)N[C@H](/C=C/C(=O)N(C)c1ccccc1)CCC(N)=O	158	580	> 320
CON1CC/C(=C\[C@H](CCC(N)=O)NC(=O)[C@H](Cc2ccccc2)NC(=O)[C@H](CC(C)C)NC(=O)OCc2ccccc2)C1=O	18	800	> 100
CO/N=C/C=C/[C@H](CCC(N)=O)NC(=O)[C@H](Cc1ccccc1)NC(=O)[C@H](CC(C)C)NC(=O)OCc1ccccc1	100	0	> 320
CCOC(=O)/C(F)=C/[C@H](CCC(N)=O)NC(=O)[C@H](Cc1ccccc1)NC(=O)[C@H](CC(C)C)NC(=O)OCc1ccccc1	> 320	60	> 320

SMILES	EC50 (HeLa [1]) [µM]	K obs / 1 [2] [M⁻¹ s⁻¹]	CC50 (HeLa [3]) [µM]
CC(C)C[C@H](NC(=O)OCc1ccccc1)C(=O)N[C@@H](Cc1ccccc1)C(=O)N[C@H](/C=C/C(=O)N1CCc2cc(F)ccc21)CCC(N)=O	11	5400	> 320
CC(C)C[C@H](NC(=O)OCc1ccccc1)C(=O)N[C@@H](Cc1ccccc1)C(=O)N[C@H](/C=C/C(=O)N1CCc2ccc(S(=O)(=O)N3CCCC3)cc21)CCC(N)=O	> 320	22700	> 320
CC(C)C[C@H](NC(=O)OCc1ccccc1)C(=O)N[C@@H](Cc1ccccc1)C(=O)N[C@H](/C=C/c1ccccn1)CCC(N)=O	> 100	120	> 100
CC(C)C[C@H](NC(=O)OCc1ccccc1)C(=O)N[C@@H](Cc1ccccc1)C(=O)N[C@H](/C=C/C(=O)N1CCCC1)CCC(N)=O	22	2100	> 100
CC(C)C[C@H](NC(=O)OCc1ccccc1)C(=O)N[C@@H](Cc1ccccc1)C(=O)N[C@H](/C=C/C(=O)O)CCC(N)=O	> 100	30	> 320
COc1ccc2c(c1)CCN2C(=O)/C=C/[C@H](CCC(N)=O)NC(=O)[C@H](Cc1ccccc1)NC(=O)[C@H](CC(C)C)NC(=O)OCc1ccccc1	> 320	3400	> 320
CC(C)C[C@H](NC(=O)OCc1ccccc1)C(=O)N[C@@H](Cc1ccccc1)C(=O)N[C@H](/C=C/C(=O)C(C)(C)C)CCC(N)=O	1.7	15000	5.6
CC(C)C[C@H](NC(=O)OCc1ccccc1)C(=O)N[C@@H](Cc1ccccc1)C(=O)N[C@H](/C=C/C(=O)c1ccc([N+](=O)[O-])cc1)CCC(N)=O	32	310000	32
CC(C)C[C@H](NC(=O)OCc1ccccc1)C(=O)N[C@@H](Cc1ccccc1)C(=O)N[C@H](/C=C/C(=O)OC1CCCC1)CCC(N)=O	0.56	14600	> 100
CSc1cccc2c1N(C(=O)/C=C/[C@H](CCC(N)=O)NC(=O)[C@H](Cc1ccccc1)NC(=O)[C@H](CC(C)C)NC(=O)OCc1ccccc1)CC2		300	
CC(C)C[C@H](NC(=O)OCc1ccccc1)C(=O)N[C@@H](Cc1ccccc1)C(=O)N[C@H](/C=C/C(=O)N(C)O)CCC(N)=O	42	1800	42
CCOP(=O)(/C=C/[C@H](CCC(N)=O)NC(=O)[C@H](Cc1ccccc1)NC(=O)[C@H](CC(C)C)NC(=O)OCc1ccccc1)OCC	> 320	0	> 320
CC(C)C[C@H](NC(=O)OCc1ccccc1)C(=O)N[C@@H](Cc1ccccc1)C(=O)N[C@H](/C=C/C(=O)OCC(C)(C)C)CCC(N)=O	0.5	9800	> 100
CC(C)C[C@H](NC(=O)OCc1ccccc1)C(=O)N[C@@H](Cc1ccccc1)C(=O)N[C@H](/C=C/C(=O)N1CCCc2ccccc21)CCC(N)=O	126	1000	> 320
CC(C)C[C@H](NC(=O)OCc1ccccc1)C(=O)N[C@@H](Cc1ccccc1)C(=O)N[C@H](/C=C1\CCCOC1=O)CCC(N)=O	16		> 100
CC(C)C[C@H](NC(=O)OCc1ccccc1)C(=O)N[C@@H](Cc1ccccc1)C(=O)N[C@H](/C=C/C(=O)c1ccc(C#N)cc1)CCC(N)=O	50	200000	> 320
CC(C)C[C@H](NC(=O)OCc1ccccc1)C(=O)N[C@@H](Cc1ccccc1)C(=O)N[C@H](/C=C/C(=O)N1CCCCO1)CCC(N)=O	16	19000	100
CC(C)C[C@H](NC(=O)OCc1ccccc1)C(=O)N[C@@H](Cc1ccccc1)C(=O)N[C@H](/C=C/c1cocn1)CCC(N)=O	> 100	0	> 100
